From patent US4255183A, “Substituted phenyl urea and herbicides for use in paddy field” (Hokko Chemical Industry Co., Ltd., priority 1977, dated 1981)
Read-outs that look alike come from different tables or passages of the source.

Tests used:
Umbrella plant = test: Test Example 5: Wagner pot test, herbicidal effect on umbrella plant; type: in vivo; details: 20 days after application
Experimental: (§1) In a 1/7500 are Wagner pot, sieved paddy field soil (alluvial soil) was charged. Thereafter, in the center portion of the pot, 2 roots of paddy rice (Asahi species) at the 2- to 3-leaf stage were transplanted and 20 seeds of Bulrush per pot were seeded in the surface of the above soil. The pot was submerged at the depth of about 2 cm. The other Dopatrium junceum and umbrella plant were generated naturally. After seeding, when each of the weeds reached the same leaf age as defined in Table 5 given herein, a predetermined concentration of the emulsion prepared according to Example 4 was applied dropwise on the surface of the pot. The test was carried out by repeating the same test three times per area and the results were determined 20 days after the application of the chemicals with regard to the herbicidal effect and chemical injury on paddy rice on the basis of the evaluation index as shown below.
(§2) As the comparative chemicals Molinate, Benthiocarb and DCMU, those commercially available were used.
(§3) In the above table, the inhibition rate was calculated according to the method as described in Test Example 1.

Acute oral toxicity = details: in vivo, SD-strain rat
Experimental: (§4) Acute oral toxicity LD50 value of the compound of the invention measured on SD-strain rat is more than 2,000 mg/Kg for any of the trans-form, cis-form and a mixture thereof in equal amount and further acute fish toxicity TLm value (as defined by Official Standard issued from Ministry of Agriculture & Forestry) measured on young carp is more than 20 ppm for any of the above compounds.

[1] = test system: Echinochloa crus-galli var. oryzicola; test: Test Example 2: concrete pot test on killing effect, Echinochloa crus-galli var. oryzicola; type: in vivo; details: Echinochloa crus-galli, 720 h, granule, 30 days after treatment; for inhibition at 1000 g/ha: 100 g/10 are; for inhibition at 3000 g/ha: 300 g/10 are; for inhibition at 9000 g/ha: 900 g/10 are
Summary of the method: (§5)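 Barnyardgrass seeded in flooded alluvial paddy soil (~3 cm water) in concrete pots, with 2.5-leaf Asahi rice transplanted before weed emergence. Granules applied at weed 1-leaf or 5-leaf stage. Dry weights measured 30 days after treatment; inhibition rate calculated versus untreated area.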

paddy rice [2] = test: Test Example 1: pot test on selectivity, inhibition of paddy rice; type: in vivo; details: dry weight 30 days after treatment
Summary of the method: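 Alluvial paddy soil in pots sown with Echinochloa crus-galli var. oryzicola (50 seeds) and paddy rice (30 seeds), submerged about 1 cm. Dry weights taken 30 days after chemical treatment; inhibition rate calculated relative to untreated area.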

[3] = test system: Echinochloa crus-galli var. oryzicola; test: Test Example 3: field test in transplanted paddy field, Echinochloa crus-galli var. oryzicola; type: in vivo; details: Echinochloa crus-galli, 1440 h; 300 g/10 are, granule, applied at 4-leaf stage, examined 60 days after transplantation; read-out: Inhibition (%) of E. crus-galli var. oryzicola
Experimental: In a Wagner pot of 1/500 are, paddy field soil (alluvial soil) was placed and 50 seeds of Echinochloa crus-galli var. oryzicola and 30 seeds of paddy rice were seeded in the surface layer of said soil and the submerging depth was kept at about 1 cm. When Echinochloa crus-galli var. oryzicola reached at the one leaf stage and 5-leaf stage, the emulsion of a predetermined concentration, prepared according to Example 4 was added dropwise. After 30 days from the treatment with the chemical, dry weights of Echinochloa crus-galli var. oryzicola and paddy rice were measured and the inhibition rate was calculated with reference to untreated area. [formula]
In a 10 m^2 paddy field, young seedlings of paddy rice (Asahi species) at the 2,5-leaf stage were transplanted 30 days after the puddling the submerging at the depth of 3-5 cm. 25 Days after the transplantation, when Echinochloa crus-galli var. oryzicola reached 4-leaf stage, a predetermined dose of the granule prepared according to Example 1 was applied. Test results were examined 60 days after the transplantation of paddy rice in the similar manner as in Test Example 1.
Comparative chemicals used were all those commercially available and in the case of the comparative chemical 2, CNP was applied 3 days after the transplantation of paddy rice and after 25 days a mixture of Benthiocarb and Simetryne was applied.

[4] = test system: Echinochloa crus-galli var. oryzicola; test: Test Example 1: pot test on selectivity, inhibition of Echinochloa crus-galli var. oryzicola; type: in vivo; details: 75 g/10 are, dry weight 30 days after treatment
Summary of the method: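 Paddy soil pots were sown with 50 barnyard grass and 30 rice seeds under about 1 cm flooding, and emulsion at set concentrations was dripped in at the weed's 1-leaf and 5-leaf stages. After 30 days, dry weights of weed and rice gave inhibition versus untreated.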

Dopatrium junceum = test: Test Example 5: Wagner pot test, herbicidal effect on Dopatrium junceum; type: in vivo
Experimental: as §1, §2, §3

paddy rice [5] = test: whole plant or invertebrate; type: in vivo, paddy rice (Asahi species); details: Oryza sativa, 720 h, granule, 30 days; for inhibition at 1000 g/ha: 100 g/10 are; for inhibition at 3000 g/ha: 300 g/10 are; for inhibition at 9000 g/ha: 900 g/10 are
Summary of the method: as §5

Acute fish toxicity = details: in vivo; young carp, Official Standard of Ministry of Agriculture & Forestry; read-out: acute fish toxicity TLm
Experimental: as §4

[6] = read-out: Inhibition (%) by treatment at 1-leaf stage of E. crus-galli var. oryzicola, E. crus-galli var. oryzicola
[7] = read-out: Inhibition (%) by treatment at 5-leaf stage of E. crus-galli var. oryzicola, E. crus-galli var. oryzicola
[8] = rice at 3.5 leaves stage, read-out: Inhibition (%) by treatment at 1-leaf stage of E. crus-galli var. oryzicola, paddy rice
[9] = rice at 7 leaves stage, read-out: Inhibition (%) by treatment at 5-leaf stage of E. crus-galli var. oryzicola, paddy rice

Question: For `CC=CCOc1ccc(NC(=O)N(C)C)cc1` [Mixture of trans- and cis-forms 1:1], which “Weed kill degree, Umbrella plant” value (Umbrella plant; 300 g/10a, leaf age 2 (first group of columns)) is on record?
Answer: Its value is 5 (100).

Question: What about the “Weed kill degree, Umbrella plant” value (Umbrella plant; 300 g/10a, leaf age 2 (second group of columns)) of the same compound?
Answer: Its value is 5 (100).

Question: And the “Weed kill degree, Umbrella plant” value (Umbrella plant; 600 g/10a, leaf age 2 (first group of columns))?
Answer: The value was 5 (100).

Question: And the “Weed kill degree, Umbrella plant” value (Umbrella plant; 600 g/10a, leaf age 2 (second group of columns))?
Answer: Its value is 5 (100).

Question: And the LD50 (Acute oral toxicity)?
Answer: The LD50 was over 2000 mg/kg.

Question: What about the inhibition at 1000 g/ha [1, 6] of the same compound?
Answer: Its inhibition at 1000 g/ha is 100%.

Question: What about the inhibition at 1000 g/ha [1, 7] of the same compound?
Answer: The inhibition at 1000 g/ha was 100%.

Question: And the inhibition at 3000 g/ha [1, 6]?
Answer: Its inhibition at 3000 g/ha is 100%.

Question: And the inhibition at 3000 g/ha [1, 7]?
Answer: Its inhibition at 3000 g/ha is 100%.

Question: And the inhibition at 9000 g/ha [1, 6]?
Answer: The inhibition at 9000 g/ha was 100%.

Question: What about the inhibition at 9000 g/ha [1, 7] of the same compound?
Answer: The inhibition at 9000 g/ha was 100%.

Question: And the “Inhibition (%) by treatment at 1-leaf stage, paddy rice” value (paddy rice [2]; 75 g/10 are)?
Answer: Its value is 0%.

Question: What about the “Inhibition (%) by treatment at 5-leaf stage, paddy rice” value (paddy rice [2]; 75 g/10 are) of the same compound?
Answer: Its value is 0%.

Question: And the “Inhibition (%) by treatment at 1-leaf stage, paddy rice” value (paddy rice [2]; 150 g/10 are)?
Answer: Its value is 0%.

Question: And the “Inhibition (%) by treatment at 5-leaf stage, paddy rice” value (paddy rice [2]; 150 g/10 are)?
Answer: Its value is 0%.

Question: And the “Inhibition (%) by treatment at 1-leaf stage, paddy rice” value (paddy rice [2]; 300 g/10 are)?
Answer: Its value is 0%.

Question: What about the “Inhibition (%) by treatment at 5-leaf stage, paddy rice” value (paddy rice [2]; 300 g/10 are) of the same compound?
Answer: Its value is 0%.

Question: And the “Inhibition (%) by treatment at 1-leaf stage, paddy rice” value (paddy rice [2]; 600 g/10 are)?
Answer: Its value is 0%.

Question: And the “Inhibition (%) by treatment at 5-leaf stage, paddy rice” value (paddy rice [2]; 600 g/10 are)?
Answer: Its value is 0%.

Question: And the “Inhibition (%) by treatment at 1-leaf stage, paddy rice” value (paddy rice [2]; 900 g/10 are)?
Answer: The value was 3%.

Question: What about the “Inhibition (%) by treatment at 5-leaf stage, paddy rice” value (paddy rice [2]; 900 g/10 are) of the same compound?
Answer: Its value is 0%.

Question: What about the inhibition at 3000 g/ha [3] of the same compound?
Answer: The inhibition at 3000 g/ha was 100%.

Question: And the “Inhibition (%) by treatment at 1-leaf stage, E. crus-galli var. oryzicola” value ([4]; 1-leaf stage)?
Answer: Its value is 96%.

Question: And the “Inhibition (%) by treatment at 5-leaf stage, E. crus-galli var. oryzicola” value ([4]; 5-leaf stage)?
Answer: Its value is 83%.

Question: What about the “Weed kill degree, Dopatrium junceum” value (Dopatrium junceum; 300 g/10a, leaf age 2, 20 days after application) of the same compound?
Answer: Its value is 5 (100).

Question: What about the “Weed kill degree, Dopatrium junceum” value (Dopatrium junceum; 300 g/10a, leaf age 3, 20 days after application) of the same compound?
Answer: The value was 5 (100).

Question: And the “Weed kill degree, Dopatrium junceum” value (Dopatrium junceum; 600 g/10a, leaf age 2, 20 days after application)?
Answer: The value was 5 (100).

Question: And the “Weed kill degree, Dopatrium junceum” value (Dopatrium junceum; 600 g/10a, leaf age 3, 20 days after application)?
Answer: The value was 5 (100).

Question: And the inhibition at 1000 g/ha (paddy rice [5]; [8])?
Answer: Its inhibition at 1000 g/ha is 0%.

Question: And the inhibition at 1000 g/ha (paddy rice [5]; [9])?
Answer: The inhibition at 1000 g/ha was 0%.

Question: What about the inhibition at 3000 g/ha (paddy rice [5]; [8]) of the same compound?
Answer: The inhibition at 3000 g/ha was 0%.

Question: And the inhibition at 3000 g/ha (paddy rice [5]; [9])?
Answer: Its inhibition at 3000 g/ha is 0%.

Question: And the inhibition at 9000 g/ha (paddy rice [5]; [8])?
Answer: The inhibition at 9000 g/ha was 0%.

Question: And the inhibition at 9000 g/ha (paddy rice [5]; [9])?
Answer: Its inhibition at 9000 g/ha is 0%.

Question: And the LC50 (Acute fish toxicity)?
Answer: The LC50 was over 20 µg/mL.
